Our source for the TGI values is PubChem BioAssay (NCI).

SMILES strings stand for the structures.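 Assay format: 96-well plates, 48-hour exposure. TGI: total growth inhibition.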 Where only a bound is given, the exact number is not on record here.

Among the test systems are A498 renal; A549 NSCLC; HCT-116 colon; LOX IMVI melanoma; MALME-3M melanoma; MCF7 breast; MOLT-4 leukemia; NCI-H522 lung; SK-MEL-2 melanoma; SK-MEL-28 melanoma.
Common to all, as to experiment: NCI anticancer screen, dose series, 48 h

With `O=C(ON=C1c2ccccc2C(Br)C(Br)c2ccccc21)c1ccccc1` (stereo not given), the TGI with A498 renal turned out to be 40.9 µM; in the experiment with A549 NSCLC, 44 µM; in the experiment with HCT-116 colon, 28 µM; in the experiment on LOX IMVI melanoma, 9.12 µM; in the experiment with MALME-3M melanoma it was 37.1 µM; in the experiment with MCF7 breast, 31.5 µM. The TGI with MOLT-4 leukemia is 4.61 µM; with NCI-H522 lung, 3.85 µM; in the experiment with SK-MEL-2 melanoma it was above 63.6 µM; with SK-MEL-28 melanoma, 33.2 µM.
With `CCOC1C=CC(=O)C(CO)O1` (stereo not given), the TGI with A498 renal was 49.4 µM; in the experiment on A549 NSCLC, 34.9 µM; with HCT-116 colon it was 17.4 µM; with LOX IMVI melanoma it was 17.8 µM; in the experiment on MALME-3M melanoma, 25.8 µM; with MCF7 breast it was 17.7 µM. Besides, the TGI in the experiment on MOLT-4 leukemia stood at 21.2 µM; in the experiment with NCI-H522 lung, 3.52 µM; in the experiment with SK-MEL-2 melanoma it was 37.1 µM; in the experiment with SK-MEL-28 melanoma, 33.3 µM.
As to `O=C(CC(NC(=O)C(F)(F)F)C(=O)O)OCc1ccccc1` (stereo not given), the TGI with A498 renal, with A549 NSCLC, in the experiment on HCT-116 colon, with LOX IMVI melanoma, in the experiment with MALME-3M melanoma and in the experiment with MCF7 breast was above 100 µM each time. For the same compound, the TGI in the experiment with MOLT-4 leukemia, in the experiment with NCI-H522 lung, with SK-MEL-2 melanoma and in the experiment on SK-MEL-28 melanoma was above 100 µM in each case.
In the case of `COc1ccc2nc(NC(=O)/C(C#N)=C/c3ccccc3)sc2c1`, the TGI in the experiment with A498 renal, with A549 NSCLC, in the experiment with HCT-116 colon, in the experiment with LOX IMVI melanoma, in the experiment with MALME-3M melanoma and in the experiment with MCF7 breast was above 100 µM in each case. Further, the TGI was above 100 µM in the experiment with MOLT-4 leukemia, 65.4 µM in the experiment on NCI-H522 lung, above 100 µM with SK-MEL-2 melanoma and above 100 µM in the experiment with SK-MEL-28 melanoma.
For `CC(C)NC(=O)OCc1c(COC(=O)NC(C)C)n(C)c2c1ccc1sccc12`, the TGI in the experiment with A498 renal was 52.3 µM; in the experiment with A549 NSCLC, above 54.2 µM; in the experiment with HCT-116 colon, 39 µM; with LOX IMVI melanoma it was above 53.1 µM; in the experiment with MALME-3M melanoma, 13.6 µM; with MCF7 breast, above 55.5 µM. The TGI in the experiment with MOLT-4 leukemia is above 86.1 µM; in the experiment with NCI-H522 lung, 15.5 µM; with SK-MEL-2 melanoma it was 36.2 µM; with SK-MEL-28 melanoma, 57.3 µM.
On to `CCOC(=O)CSc1nc(N)c2c(-c3ccccc3)c3c(nc2n1)CCCC3`, for which the TGI with A498 renal, in the experiment with A549 NSCLC, in the experiment on HCT-116 colon, in the experiment on LOX IMVI melanoma, in the experiment with MALME-3M melanoma and in the experiment on MCF7 breast was above 100 µM each time. For the same compound, the TGI in the experiment with MOLT-4 leukemia, in the experiment with NCI-H522 lung, in the experiment on SK-MEL-2 melanoma and with SK-MEL-28 melanoma was above 100 µM in each case.
As for `CN(/N=C1\C(=O)Nc2ccccc21)c1ccccc1`, the TGI in the experiment with A498 renal, in the experiment with A549 NSCLC, in the experiment on HCT-116 colon, with LOX IMVI melanoma, in the experiment with MALME-3M melanoma and in the experiment on MCF7 breast was above 100 µM each time. Also, the TGI in the experiment with MOLT-4 leukemia, in the experiment with NCI-H522 lung, in the experiment on SK-MEL-2 melanoma and in the experiment on SK-MEL-28 melanoma was above 100 µM throughout.
For the compound `CCCCCCN(CCCCCC)C(=S)N/N=C(\C)c1ccccn1`, the TGI came out at 9.29 µM in the experiment on A498 renal; 3.66 µM in the experiment on A549 NSCLC; 2.39 µM in the experiment on HCT-116 colon; 2.59 µM in the experiment on LOX IMVI melanoma; 3.17 µM in the experiment with MALME-3M melanoma; 3.16 µM in the experiment on MCF7 breast. Further, the TGI is 5.79 µM in the experiment with MOLT-4 leukemia, 2.7 µM in the experiment with NCI-H522 lung, 3.02 µM in the experiment with SK-MEL-2 melanoma and 3.04 µM in the experiment on SK-MEL-28 melanoma.
On to `CSCC[C@@H](NC(=O)[C@H](CC(C)C)NC(=O)C(Cc1cnc[nH]1)NC(=O)CNC(=O)[C@@H](NC(=O)[C@H](C)NC(=O)[C@H](Cc1c[nH]c2ccccc12)NC(=O)[C@H](CCC(N)=O)NC(=O)[C@@H](N)CC(N)=O)C(C)C)C(N)=O` (stereo not given in full), for which the TGI in the experiment with A498 renal, in the experiment on A549 NSCLC, in the experiment with HCT-116 colon, with LOX IMVI melanoma, in the experiment on MALME-3M melanoma and in the experiment with MCF7 breast was above 100 µM in each case. The TGI in the experiment with MOLT-4 leukemia, with NCI-H522 lung, in the experiment on SK-MEL-2 melanoma and in the experiment with SK-MEL-28 melanoma was above 100 µM each time.
For `O=C(NCc1ccccc1)c1cc2ccccc2oc1=Nc1cccc(C(F)(F)F)c1`, the TGI in the experiment on A498 renal, in the experiment on A549 NSCLC, in the experiment on HCT-116 colon, in the experiment with LOX IMVI melanoma, in the experiment on MALME-3M melanoma and in the experiment on MCF7 breast was above 100 µM in each case. Moreover, the TGI in the experiment on MOLT-4 leukemia is 92.5 µM; in the experiment with NCI-H522 lung, above 100 µM; in the experiment on SK-MEL-2 melanoma, above 100 µM; in the experiment with SK-MEL-28 melanoma, above 100 µM.
As for `O=C(/C=C/c1ccc(Cl)cc1)Oc1ccc(C=C2CCC/C(=C\c3ccc(OC(=O)/C=C/c4ccc(Cl)cc4)cc3)C2=O)cc1`, the TGI in the experiment with A498 renal, with A549 NSCLC, with HCT-116 colon, in the experiment with LOX IMVI melanoma, with MALME-3M melanoma and in the experiment with MCF7 breast was above 100 µM each time. Further, the TGI with MOLT-4 leukemia, with NCI-H522 lung, in the experiment with SK-MEL-2 melanoma and with SK-MEL-28 melanoma was above 100 µM throughout.
As for `C[n+]1cc2cc(O)c(O)cc2c2ccc3cc(O)c(O)cc3c21`, the TGI in the experiment on A498 renal is 11.8 µM; in the experiment with A549 NSCLC, above 100 µM; with HCT-116 colon, 4.21 µM; in the experiment with LOX IMVI melanoma it was 18.3 µM; in the experiment on MALME-3M melanoma, 12.9 µM; in the experiment on MCF7 breast, 9.09 µM. The TGI was 11.2 µM with MOLT-4 leukemia, 3.43 µM in the experiment on NCI-H522 lung, 12 µM with SK-MEL-2 melanoma and above 100 µM in the experiment with SK-MEL-28 melanoma.
